Assay results as given in patent US20070254312A1, “Protein Kinase Inhibitors and Methods for Identiying Same” (priority 2004, published 2007).
Where two headings read alike, the source gives them in different places. Blank lines part the entries; values can stand above or below the molecule they belong to. Starred links: 1 amine or outer side, 2 acyl side, 3 side chain; linkers in the order of their positions; H or OH if unused. Non-standard residues stand in square brackets, D forms with d. Residues, ends and D or L forms follow the SMILES beside them. *: point of attachment. Benzoyl(4-(pyrrol-1-yl)) = O=C(c1ccc(-n2cccc2)cc1)*; Cysteamide = C(CS[*:3])N[*:1]; Dap = NC[C@H](N)C(=O)O

Columns and labels:
PKCα [1] = biological target: T1, PKCα (Homo sapiens, UniProt P17252); assay: Protein Kinase Cα radioactive assay, peptide substrate Ac-Ser-Phe-Arg-Arg-Arg-NH2 (Example 1); format: biochemical; design: purchased Pan Vera; conditions: peptide substrate; read-out: PKCα inhibitory potency IC50
Protocol: Protein Kinase C Assay (general). The peptides […] (for PKC α, β and γ) and acetyl-[…] (for PKC ε and ζ) were used as substrates. […] Total reaction volume was 50 μL. […] Following an additional 5 min incubation at ambient temperature, 75 μL from each reaction well was transferred into each well of a Unifilter (P81 cellulose phosphate paper) assay plate and washed four times with 0.1% phosphoric acid in water. […] IC50 values were calculated using GraFit (Erithacus Software Limited) and Ki values were calculated using Enzyme Kinetics, SigmaPlot (SPSS Inc.) […] An analogous protocol was employed for peptide 4 versus variable [[…]]. […] An analogous protocol was employed for peptide 4 versus variable [ATP]. Protein Kinase Cα Assay (Ki determination for peptide 6 versus variable […] substrate). […] The reaction was initiated as described above. […] Following an additional 5 min incubation at ambient temperature, 75 μL from each reaction well was transferred into each well of a Unifilter (P81 cellulose phosphate paper) assay plate and washed four times with 0.1% phosphoric acid in water. […] IC50 values were calculated using GraFit (Erithacus Software Limited) and Ki values were calculated using Enzyme Kinetics, SigmaPlot (SPSS Inc.)

PKC β1 = PKC β1 (Homo sapiens, UniProt P05771); conditions: cited from earlier work
PKCα [2] = biological target: T1, PKCα; conditions: cited from earlier work
PKCε = biological target: T2, PKCε (Homo sapiens, UniProt Q02156); design: purchased Panvera; conditions: cited from earlier work
T2 sequence (Q02156 1-737): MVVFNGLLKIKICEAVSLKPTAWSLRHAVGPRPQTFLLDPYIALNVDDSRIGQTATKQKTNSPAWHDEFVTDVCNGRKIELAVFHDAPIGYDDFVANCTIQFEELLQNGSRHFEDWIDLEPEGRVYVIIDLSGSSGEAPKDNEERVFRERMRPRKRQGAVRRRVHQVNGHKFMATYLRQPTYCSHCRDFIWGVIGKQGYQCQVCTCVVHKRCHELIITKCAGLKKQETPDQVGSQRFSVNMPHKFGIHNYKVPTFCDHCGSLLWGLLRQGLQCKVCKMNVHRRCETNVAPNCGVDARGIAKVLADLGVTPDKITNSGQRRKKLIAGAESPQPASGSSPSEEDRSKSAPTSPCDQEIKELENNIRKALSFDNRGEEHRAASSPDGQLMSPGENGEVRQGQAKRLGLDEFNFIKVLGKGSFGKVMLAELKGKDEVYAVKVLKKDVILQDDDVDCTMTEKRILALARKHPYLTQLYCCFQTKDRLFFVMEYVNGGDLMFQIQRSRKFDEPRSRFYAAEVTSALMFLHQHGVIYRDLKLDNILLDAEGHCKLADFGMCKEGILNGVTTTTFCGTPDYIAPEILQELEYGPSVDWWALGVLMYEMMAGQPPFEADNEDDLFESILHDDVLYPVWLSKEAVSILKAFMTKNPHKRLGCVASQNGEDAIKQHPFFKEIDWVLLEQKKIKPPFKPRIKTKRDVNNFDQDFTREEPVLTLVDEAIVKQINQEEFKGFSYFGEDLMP

PKCζ = biological target: T3, PKCζ (Homo sapiens, UniProt Q05513); design: purchased Panvera; conditions: cited from earlier work
T3 sequence (Q05513 1-592): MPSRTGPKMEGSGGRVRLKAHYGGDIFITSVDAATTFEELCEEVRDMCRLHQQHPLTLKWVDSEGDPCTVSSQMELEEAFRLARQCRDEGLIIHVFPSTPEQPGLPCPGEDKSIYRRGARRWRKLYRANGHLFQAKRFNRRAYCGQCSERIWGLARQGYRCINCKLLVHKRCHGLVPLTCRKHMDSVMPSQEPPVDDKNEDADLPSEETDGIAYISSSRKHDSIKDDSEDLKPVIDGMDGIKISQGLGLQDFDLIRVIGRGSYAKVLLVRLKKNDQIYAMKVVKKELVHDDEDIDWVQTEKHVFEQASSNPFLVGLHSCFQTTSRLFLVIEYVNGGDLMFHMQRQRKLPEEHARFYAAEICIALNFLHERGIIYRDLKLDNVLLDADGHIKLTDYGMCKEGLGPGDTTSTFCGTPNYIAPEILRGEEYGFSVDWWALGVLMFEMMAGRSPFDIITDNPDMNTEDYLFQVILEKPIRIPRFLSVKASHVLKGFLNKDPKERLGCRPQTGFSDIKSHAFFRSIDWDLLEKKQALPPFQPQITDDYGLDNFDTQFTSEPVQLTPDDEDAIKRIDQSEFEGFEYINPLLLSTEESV

PKCδ = PKCδ (Homo sapiens, UniProt Q05655); design: purchased Panvera; conditions: literature values; relative to most potently inhibited isoform (=1); cited from earlier work
PKCγ = PKCγ (Homo sapiens, UniProt P05129); design: purchased Panvera; conditions: cited from earlier work
PKCη = PKCη (Homo sapiens, UniProt P24723); design: purchased Panvera; conditions: cited from earlier work
Sequence of PKCη (P24723 whole entry): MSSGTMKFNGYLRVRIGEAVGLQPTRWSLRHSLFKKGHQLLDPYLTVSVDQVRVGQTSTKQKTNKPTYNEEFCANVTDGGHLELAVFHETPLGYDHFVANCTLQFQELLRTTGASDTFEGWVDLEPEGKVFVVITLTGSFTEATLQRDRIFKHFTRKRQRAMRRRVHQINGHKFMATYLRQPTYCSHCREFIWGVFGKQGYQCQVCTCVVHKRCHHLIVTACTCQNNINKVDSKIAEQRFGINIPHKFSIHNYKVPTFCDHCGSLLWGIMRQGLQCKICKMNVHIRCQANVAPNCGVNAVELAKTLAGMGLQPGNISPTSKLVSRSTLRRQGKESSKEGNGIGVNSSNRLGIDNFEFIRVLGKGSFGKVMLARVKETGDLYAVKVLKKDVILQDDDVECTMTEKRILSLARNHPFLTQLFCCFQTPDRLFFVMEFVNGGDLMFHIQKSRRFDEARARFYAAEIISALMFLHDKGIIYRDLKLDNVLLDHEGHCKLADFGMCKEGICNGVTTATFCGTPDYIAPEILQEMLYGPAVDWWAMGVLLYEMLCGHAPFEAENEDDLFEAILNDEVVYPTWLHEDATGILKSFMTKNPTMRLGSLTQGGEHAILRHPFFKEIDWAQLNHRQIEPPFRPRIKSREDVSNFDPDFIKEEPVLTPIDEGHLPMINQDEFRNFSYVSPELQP

Sequence of PKC β1 (P05771 whole entry): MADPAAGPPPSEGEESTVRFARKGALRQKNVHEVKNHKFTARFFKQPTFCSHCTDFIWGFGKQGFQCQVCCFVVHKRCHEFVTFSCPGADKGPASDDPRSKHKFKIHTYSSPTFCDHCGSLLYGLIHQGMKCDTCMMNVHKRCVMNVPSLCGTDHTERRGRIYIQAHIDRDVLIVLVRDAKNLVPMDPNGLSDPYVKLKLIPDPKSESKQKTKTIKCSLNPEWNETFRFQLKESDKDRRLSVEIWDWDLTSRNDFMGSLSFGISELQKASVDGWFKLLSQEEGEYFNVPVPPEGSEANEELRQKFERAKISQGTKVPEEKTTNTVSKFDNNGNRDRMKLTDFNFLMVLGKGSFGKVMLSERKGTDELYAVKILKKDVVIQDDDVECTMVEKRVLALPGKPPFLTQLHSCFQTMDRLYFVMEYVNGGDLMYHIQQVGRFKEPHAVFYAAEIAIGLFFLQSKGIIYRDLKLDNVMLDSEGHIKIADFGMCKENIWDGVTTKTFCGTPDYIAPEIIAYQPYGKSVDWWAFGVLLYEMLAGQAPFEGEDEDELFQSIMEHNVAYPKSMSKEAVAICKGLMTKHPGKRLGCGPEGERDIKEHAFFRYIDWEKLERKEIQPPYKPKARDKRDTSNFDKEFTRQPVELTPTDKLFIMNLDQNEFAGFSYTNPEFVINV
Sequence of PKCδ (Q05655 whole entry, canonical isoform): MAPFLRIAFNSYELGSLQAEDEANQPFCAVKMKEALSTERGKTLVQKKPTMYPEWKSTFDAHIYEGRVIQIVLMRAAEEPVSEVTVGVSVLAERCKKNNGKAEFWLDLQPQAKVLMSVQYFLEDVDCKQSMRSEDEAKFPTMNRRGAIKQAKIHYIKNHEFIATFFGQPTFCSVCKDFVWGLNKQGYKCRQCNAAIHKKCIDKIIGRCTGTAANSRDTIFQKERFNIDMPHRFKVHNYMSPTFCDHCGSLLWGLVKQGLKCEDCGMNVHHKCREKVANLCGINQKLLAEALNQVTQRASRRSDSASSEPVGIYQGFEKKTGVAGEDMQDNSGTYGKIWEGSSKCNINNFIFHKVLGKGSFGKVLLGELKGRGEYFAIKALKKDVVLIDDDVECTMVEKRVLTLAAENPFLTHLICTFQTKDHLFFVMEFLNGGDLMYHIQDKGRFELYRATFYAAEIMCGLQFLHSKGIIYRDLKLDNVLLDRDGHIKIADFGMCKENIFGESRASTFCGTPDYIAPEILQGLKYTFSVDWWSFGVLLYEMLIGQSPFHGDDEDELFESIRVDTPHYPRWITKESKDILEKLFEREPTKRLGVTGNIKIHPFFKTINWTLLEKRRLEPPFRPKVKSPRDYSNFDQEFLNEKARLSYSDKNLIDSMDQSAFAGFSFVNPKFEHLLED

IC50 (PKCα [1]): 5.7 ± 0.4 µM
Structure (SMILES): CC(=O)N[C@@H](C)C(=O)N[C@@H](CCCNC(=N)N)C(=O)N[C@@H](CCCNC(=N)N)C(=O)NCC(=O)N[C@@H](CNC(=O)c1ccc(-n2cccc2)cc1)C(=O)N[C@@H](CC(C)C)C(=O)N[C@@H](CCCNC(=N)N)C(=O)N[C@@H](CCC(N)=O)C(=O)N[C@@H](C)C(=O)NCCS [Compound 2] (Ac-ARRG[Dap](Benzoyl(4-(pyrrol-1-yl)))LRQA-Cysteamide)

Structure (SMILES): CC(=O)c1c(O)c(C)c(O)c(Cc2c(O)c3c(c(C(=O)/C=C/c4ccccc4)c2O)OC(C)(C)C=C3)c1O [Rottlerin, rottlerin]
Fold selectivity (IC50), PKC β1 (PKC β1): 14 fold | Fold selectivity (IC50), PKC β1 (PKC β1; listed as rottlerin): 10 fold | Fold selectivity (IC50), PKC α (PKCα [2]): 10 fold | Fold selectivity (IC50), PKC ε (PKCε): 33 fold | Fold selectivity (IC50), PKC ζ (PKCζ): 33 fold | Fold selectivity (IC50), PKC δ (PKCδ): 1 fold | Fold selectivity (IC50), PKC γ (PKCγ): 13 fold | Fold selectivity (IC50), PKC η (PKCη): 27 fold
